US20090181991A1, “COMPOUNDS AND COMPOSITIONS AS PROTEIN KINASE INHIBITORS” (IRM LLC, priority 2005, published 2009)

What was measured:
Experiment in all cases: Upstate KinaseProfiler radio-enzymatic filter binding assay
Assay type in all cases: biochemical
Conditions in all cases: 10 μM compound, remaining activity
SAPK2a = molecular target: T1, SAPK2a (Homo sapiens, UniProt Q16539)
T1 construct: purchased Upstate
Method: (§1) Percentage inhibition is calculated for each reaction.

Flt3 = molecular target: T2, Flt3 (Homo sapiens, UniProt P36888)
T2 construct: purchased Upstate
T2 sequence (P36888 27-993): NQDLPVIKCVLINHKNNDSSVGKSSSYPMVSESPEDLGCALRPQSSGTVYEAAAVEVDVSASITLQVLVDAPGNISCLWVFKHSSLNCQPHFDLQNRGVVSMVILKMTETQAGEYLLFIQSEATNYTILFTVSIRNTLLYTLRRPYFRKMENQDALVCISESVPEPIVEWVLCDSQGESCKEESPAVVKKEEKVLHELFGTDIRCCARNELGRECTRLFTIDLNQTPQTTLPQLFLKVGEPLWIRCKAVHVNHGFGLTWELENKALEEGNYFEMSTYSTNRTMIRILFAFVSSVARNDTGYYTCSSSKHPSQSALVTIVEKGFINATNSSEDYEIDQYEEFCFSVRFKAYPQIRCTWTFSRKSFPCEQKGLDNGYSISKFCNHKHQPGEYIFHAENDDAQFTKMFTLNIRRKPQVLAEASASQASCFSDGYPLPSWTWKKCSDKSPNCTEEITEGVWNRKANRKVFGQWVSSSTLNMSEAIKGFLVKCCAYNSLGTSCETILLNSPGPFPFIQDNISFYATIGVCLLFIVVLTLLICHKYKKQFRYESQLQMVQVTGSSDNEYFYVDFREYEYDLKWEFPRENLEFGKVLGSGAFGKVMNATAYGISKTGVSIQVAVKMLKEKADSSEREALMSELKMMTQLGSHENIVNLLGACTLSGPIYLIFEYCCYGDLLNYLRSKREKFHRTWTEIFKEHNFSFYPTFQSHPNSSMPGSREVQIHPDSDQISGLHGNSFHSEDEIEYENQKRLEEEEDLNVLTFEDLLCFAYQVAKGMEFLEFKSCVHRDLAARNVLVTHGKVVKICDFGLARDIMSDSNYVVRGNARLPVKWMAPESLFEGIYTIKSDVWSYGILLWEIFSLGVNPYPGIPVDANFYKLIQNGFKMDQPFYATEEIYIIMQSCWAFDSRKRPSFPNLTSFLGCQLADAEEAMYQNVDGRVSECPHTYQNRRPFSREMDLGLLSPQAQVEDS
Method: as §1

Lck = molecular target: T3, Lck (Homo sapiens, UniProt P06239)
T3 construct: purchased Upstate
Method: as §1

Bmx = molecular target: T4, Bmx (Homo sapiens, UniProt P51813)
T4 construct: purchased Upstate
T4 sequence (P51813 1-675): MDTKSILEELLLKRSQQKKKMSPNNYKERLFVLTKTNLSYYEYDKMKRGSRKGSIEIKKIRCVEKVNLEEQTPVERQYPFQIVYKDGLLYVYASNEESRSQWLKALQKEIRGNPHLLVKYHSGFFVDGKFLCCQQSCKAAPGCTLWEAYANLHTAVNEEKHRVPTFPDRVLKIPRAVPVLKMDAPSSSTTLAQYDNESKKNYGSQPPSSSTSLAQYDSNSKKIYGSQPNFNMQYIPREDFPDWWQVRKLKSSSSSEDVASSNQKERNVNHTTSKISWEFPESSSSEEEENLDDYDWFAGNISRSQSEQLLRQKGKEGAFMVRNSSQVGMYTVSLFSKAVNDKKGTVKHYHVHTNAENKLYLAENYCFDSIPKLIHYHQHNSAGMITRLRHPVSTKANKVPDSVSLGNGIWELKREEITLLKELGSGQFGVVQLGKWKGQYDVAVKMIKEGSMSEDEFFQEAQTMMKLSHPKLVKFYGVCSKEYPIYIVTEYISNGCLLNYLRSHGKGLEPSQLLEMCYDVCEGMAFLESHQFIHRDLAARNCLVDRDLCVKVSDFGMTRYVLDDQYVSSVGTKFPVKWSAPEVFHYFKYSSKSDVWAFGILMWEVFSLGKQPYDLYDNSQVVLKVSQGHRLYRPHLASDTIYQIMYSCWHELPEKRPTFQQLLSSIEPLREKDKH
Method: as §1

Measured: kinase activity

T3 sequence (P06239 whole entry): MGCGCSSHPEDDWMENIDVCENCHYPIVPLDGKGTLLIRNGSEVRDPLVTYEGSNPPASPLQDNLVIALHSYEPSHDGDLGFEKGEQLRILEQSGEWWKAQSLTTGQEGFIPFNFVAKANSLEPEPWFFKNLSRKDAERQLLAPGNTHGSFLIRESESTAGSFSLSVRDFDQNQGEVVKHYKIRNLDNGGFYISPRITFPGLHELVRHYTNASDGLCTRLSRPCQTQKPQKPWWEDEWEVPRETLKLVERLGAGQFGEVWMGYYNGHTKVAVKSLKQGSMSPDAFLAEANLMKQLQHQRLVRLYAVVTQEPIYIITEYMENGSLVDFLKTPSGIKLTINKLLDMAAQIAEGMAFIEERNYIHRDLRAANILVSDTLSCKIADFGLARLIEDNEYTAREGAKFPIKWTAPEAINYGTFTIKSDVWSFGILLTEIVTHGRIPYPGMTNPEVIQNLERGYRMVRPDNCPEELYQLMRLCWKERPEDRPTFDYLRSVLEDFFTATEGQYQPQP
T1 sequence (Q16539 whole entry): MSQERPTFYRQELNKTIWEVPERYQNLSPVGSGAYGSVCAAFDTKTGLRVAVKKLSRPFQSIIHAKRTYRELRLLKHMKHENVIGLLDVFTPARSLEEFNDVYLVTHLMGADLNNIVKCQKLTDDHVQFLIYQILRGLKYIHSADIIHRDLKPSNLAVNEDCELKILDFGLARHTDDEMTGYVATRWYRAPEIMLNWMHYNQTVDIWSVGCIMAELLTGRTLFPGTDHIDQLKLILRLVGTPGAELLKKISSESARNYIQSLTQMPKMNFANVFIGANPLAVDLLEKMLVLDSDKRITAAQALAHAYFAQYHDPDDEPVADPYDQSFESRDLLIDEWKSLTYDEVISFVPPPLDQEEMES

O=C(Nc1cccc(Nc2cc(Nc3cccc(C(F)(F)F)c3)ncn2)c1)C1CC1 [Example 1, Cyclopropanecarboxylic acid {3-[6-(3-trifluoromethyl-phenylamino)-pyrimidin-4-ylamino]-phenyl}-amide]
less than 50%: all assays above
